# From ChEMBL document CHEMBL5291721, “A preclinical secondary pharmacology resource illuminates target-adverse drug reaction associations of marketed drugs” (Nat Commun, 2023)
# Columns and labels:
# [1] = molecular target: T1, Androgen receptor (Rattus norvegicus, UniProt P15207); type: functional
# T1 sequence (P15207 whole entry): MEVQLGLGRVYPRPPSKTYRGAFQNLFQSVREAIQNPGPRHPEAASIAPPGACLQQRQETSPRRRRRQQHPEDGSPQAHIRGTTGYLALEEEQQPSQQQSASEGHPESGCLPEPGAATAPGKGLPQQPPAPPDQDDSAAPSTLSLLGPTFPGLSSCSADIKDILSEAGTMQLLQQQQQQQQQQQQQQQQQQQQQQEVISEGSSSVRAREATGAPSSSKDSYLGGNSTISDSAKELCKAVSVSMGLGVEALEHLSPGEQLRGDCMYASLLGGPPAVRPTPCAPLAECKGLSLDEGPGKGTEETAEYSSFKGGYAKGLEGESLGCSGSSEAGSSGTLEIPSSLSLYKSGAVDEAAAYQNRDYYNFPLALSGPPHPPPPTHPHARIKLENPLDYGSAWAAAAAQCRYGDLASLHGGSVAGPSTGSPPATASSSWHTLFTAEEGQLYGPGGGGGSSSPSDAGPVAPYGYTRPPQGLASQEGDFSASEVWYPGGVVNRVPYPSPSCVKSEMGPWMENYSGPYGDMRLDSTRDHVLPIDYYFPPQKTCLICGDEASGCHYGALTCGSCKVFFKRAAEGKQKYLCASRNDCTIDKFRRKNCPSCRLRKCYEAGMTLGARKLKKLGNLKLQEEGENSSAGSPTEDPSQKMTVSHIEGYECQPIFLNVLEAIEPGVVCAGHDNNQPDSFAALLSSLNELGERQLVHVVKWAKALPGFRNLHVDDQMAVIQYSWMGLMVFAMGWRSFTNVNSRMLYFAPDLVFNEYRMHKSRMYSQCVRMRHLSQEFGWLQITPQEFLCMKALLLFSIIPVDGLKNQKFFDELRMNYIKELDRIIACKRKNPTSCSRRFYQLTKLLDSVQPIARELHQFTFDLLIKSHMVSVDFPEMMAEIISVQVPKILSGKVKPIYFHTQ
# [2] = molecular target: T2, Progesterone receptor (Homo sapiens, UniProt P06401)
# T2 sequence (P06401 whole entry): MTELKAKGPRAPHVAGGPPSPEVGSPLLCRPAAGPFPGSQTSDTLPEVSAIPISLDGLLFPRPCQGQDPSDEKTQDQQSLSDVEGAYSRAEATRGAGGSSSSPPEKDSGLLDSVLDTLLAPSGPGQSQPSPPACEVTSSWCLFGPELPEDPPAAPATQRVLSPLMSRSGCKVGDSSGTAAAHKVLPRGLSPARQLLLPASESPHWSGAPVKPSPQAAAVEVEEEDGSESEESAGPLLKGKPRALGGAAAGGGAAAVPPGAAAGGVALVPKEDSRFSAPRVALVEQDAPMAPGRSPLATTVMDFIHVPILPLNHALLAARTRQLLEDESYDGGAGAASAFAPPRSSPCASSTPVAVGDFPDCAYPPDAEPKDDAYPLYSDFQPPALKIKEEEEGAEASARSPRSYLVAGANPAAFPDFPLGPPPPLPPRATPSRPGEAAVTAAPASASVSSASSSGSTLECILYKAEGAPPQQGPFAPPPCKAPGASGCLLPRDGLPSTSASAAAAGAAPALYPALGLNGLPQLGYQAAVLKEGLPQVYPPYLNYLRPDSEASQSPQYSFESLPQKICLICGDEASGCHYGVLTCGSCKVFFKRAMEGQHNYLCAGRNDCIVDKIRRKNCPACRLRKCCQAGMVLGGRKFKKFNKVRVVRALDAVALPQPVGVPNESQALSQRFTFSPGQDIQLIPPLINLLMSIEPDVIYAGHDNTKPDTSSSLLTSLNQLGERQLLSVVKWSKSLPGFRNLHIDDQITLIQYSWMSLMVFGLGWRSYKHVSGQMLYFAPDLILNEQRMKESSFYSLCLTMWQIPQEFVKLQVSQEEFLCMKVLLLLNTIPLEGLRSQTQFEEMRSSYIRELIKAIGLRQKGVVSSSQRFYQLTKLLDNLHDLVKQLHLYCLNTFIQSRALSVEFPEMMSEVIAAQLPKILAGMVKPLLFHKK
# [3] = molecular target: 5-hydroxytryptamine receptor 6 (Homo sapiens, UniProt P50406)
# Chain of 5-hydroxytryptamine receptor 6 (P50406 whole entry): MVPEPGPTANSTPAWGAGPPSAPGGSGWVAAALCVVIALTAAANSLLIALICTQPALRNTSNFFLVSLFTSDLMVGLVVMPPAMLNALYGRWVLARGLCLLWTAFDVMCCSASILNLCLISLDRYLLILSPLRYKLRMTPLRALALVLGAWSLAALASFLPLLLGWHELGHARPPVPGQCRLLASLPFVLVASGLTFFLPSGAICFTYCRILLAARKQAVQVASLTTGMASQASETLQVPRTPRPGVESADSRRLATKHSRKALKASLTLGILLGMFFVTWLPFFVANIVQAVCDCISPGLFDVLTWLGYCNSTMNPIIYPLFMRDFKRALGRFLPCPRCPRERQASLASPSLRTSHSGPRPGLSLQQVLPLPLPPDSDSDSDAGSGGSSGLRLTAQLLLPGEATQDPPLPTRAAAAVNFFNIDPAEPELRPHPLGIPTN
# [4] = molecular target: Glucagon receptor (Homo sapiens, UniProt P47871)
# Chain of Glucagon receptor (P47871 whole entry): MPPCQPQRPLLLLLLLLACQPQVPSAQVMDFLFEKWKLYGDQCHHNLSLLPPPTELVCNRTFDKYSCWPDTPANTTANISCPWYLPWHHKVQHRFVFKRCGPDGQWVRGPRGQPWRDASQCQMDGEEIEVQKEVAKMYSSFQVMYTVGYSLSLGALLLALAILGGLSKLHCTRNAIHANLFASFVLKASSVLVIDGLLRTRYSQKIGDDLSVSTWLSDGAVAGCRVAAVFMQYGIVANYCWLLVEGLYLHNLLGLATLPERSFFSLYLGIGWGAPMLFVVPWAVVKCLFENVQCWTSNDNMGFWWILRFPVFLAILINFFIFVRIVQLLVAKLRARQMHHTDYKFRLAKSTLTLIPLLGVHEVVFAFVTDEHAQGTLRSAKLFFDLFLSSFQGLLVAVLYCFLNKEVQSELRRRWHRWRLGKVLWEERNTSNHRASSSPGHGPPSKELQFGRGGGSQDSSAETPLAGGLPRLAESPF
# [5] = molecular target: T3, Endothelin receptor type B (Homo sapiens, UniProt P24530)
# T3 sequence (P24530 whole entry): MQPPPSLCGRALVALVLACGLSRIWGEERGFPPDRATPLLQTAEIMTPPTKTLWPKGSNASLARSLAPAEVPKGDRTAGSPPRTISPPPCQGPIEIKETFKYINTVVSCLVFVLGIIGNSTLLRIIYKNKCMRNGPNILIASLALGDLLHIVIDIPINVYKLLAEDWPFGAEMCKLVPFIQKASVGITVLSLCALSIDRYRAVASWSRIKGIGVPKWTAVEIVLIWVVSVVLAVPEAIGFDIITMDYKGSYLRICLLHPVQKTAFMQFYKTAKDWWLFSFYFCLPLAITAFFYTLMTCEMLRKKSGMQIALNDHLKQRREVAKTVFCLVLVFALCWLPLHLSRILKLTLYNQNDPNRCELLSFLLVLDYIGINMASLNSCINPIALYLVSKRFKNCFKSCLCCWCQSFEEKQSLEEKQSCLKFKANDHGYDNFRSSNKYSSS
# [6] = molecular target: T4, B1 bradykinin receptor (Homo sapiens, UniProt P46663)
# T4 sequence (P46663 whole entry): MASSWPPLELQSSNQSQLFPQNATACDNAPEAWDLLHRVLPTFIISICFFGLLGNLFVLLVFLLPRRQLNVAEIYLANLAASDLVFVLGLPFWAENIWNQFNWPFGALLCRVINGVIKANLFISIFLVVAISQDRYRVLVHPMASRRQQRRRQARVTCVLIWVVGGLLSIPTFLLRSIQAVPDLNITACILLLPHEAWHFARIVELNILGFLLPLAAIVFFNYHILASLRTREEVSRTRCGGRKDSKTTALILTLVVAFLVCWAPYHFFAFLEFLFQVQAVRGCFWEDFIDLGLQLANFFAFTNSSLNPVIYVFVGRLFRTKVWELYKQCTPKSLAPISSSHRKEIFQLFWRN
# Note: assay procedure not described here.
smiles,measurement,setting,value
CC(C)(Oc1ccc(Cl)cc1)C(=O)OCCOC(=O)c1cccnc1 [ETOFIBRATE],AC50,[1],> 30 µM
COc1cccc2c1C(=O)c1c(O)c3c(c(O)c1C2=O)C[C@@](O)(C(=O)CO)C[C@@H]3O[C@H]1C[C@H](N)[C@H](O)[C@H](C)O1 [DOXORUBICIN],AC50,[2],1.7 µM
N=C(N)NC(=O)c1nc(Cl)c(N)nc1N [AMILORIDE],AC50,[3],> 10 µM
same,AC50,[4],> 30 µM
same,AC50,[5],> 30 µM
same,AC50,[2],> 30 µM
same,AC50,[6],> 10 µM
C[C@]12C=CC(=O)C=C1CC[C@@H]1[C@@H]2[C@@H](O)C[C@@]2(C)[C@H]1CC[C@]2(O)C(=O)CO [PREDNISOLONE],AC50,[4],> 30 µM
same,AC50,[5],> 30 µM
same,AC50,[6],> 30 µM
C[C@]12C=CC(=O)C=C1C(Cl)=C[C@@H]1[C@@H]2[C@@H](O)C[C@@]2(C)[C@H]1CC[C@]2(O)C(=O)CO [CLOPREDNOL],AC50,[1],> 30 µM
Cc1ccc(O)c([C@H](CCN(C(C)C)C(C)C)c2ccccc2)c1 [TOLTERODINE],AC50,[3],> 10 µM
